According to patent US20060135587A1, “Method and compounds for promoting healing and reducing inflammation” (priority 2002, published 2006):

How the values were obtained:
guinea pigs = experiment: Acute toxicity (LD50) in guinea pigs; type: in vivo; conditions: oral administration
From the text: It is contemplated that in clinical use, treatment using oral tablets will take two to three weeks, with each patient receiving three tablets containing 0.6 g active compound per day.

[1] = test system: regeneration of liver after partial hepatectomy; experiment: Liver regeneration after partial hepatectomy in rats; type: in vivo; conditions: for Level of recovery: 7 days, hepatectomy alone = 100
Method: Partial hepatectomy was performed using the conventional method (Higgins and Anderson, 1931) by removing the left lateral and central lobes of the liver from 80 male white rats, weighing 180-200 g.
Compound 2, Compound 4, Compound 5 or Compound 6 was administered to the experimental groups intraperitoneally in equimolar doses of 0.1 mM/kg and 0.2 mM/kg. These optimal doses were determined in preliminary experiments. The control group received intraperitoneal injections of saline solution. The compounds were administered on the day after the operation and then one injection was given daily over the course of 7 days, since maximum growth of the liver mass in rats is observed in the first 7 days after partial hepatectomy (Solopaev, 1980).
The effectiveness of the compounds was compared to that of a combination of non-steroid anabolic regeneration stimulators which are used in the treatment of liver pathology, namely Riboxin and potassium orotate at a dose of 0.2 mM/kg each (Rychnev and Frolov, 1984).
For quantitative evaluation of the regeneration process in the liver the coefficient of regeneration completion as determined by the formula below was used: [formula] where
Stimulation of the regeneration of tissue after hepatectomy in response to different medicinal preparations is associated with an increase in the synthesis of nucleic acids, as indicated by the increase in the content of RNA and DNA in the regenerated tissue. Quantitative analysis of DNA and RNA was performed by centrifugation. […] The enzymic component of anti-oxidant protection was also assessed on the basis of the activity of catalase and superoxidedismutase (SOD).
5 ml of […] of HCIO4 solution were added to the sample (100 mg). In order to ensure complete sedimentation of the acid-insoluble fraction, the beakers were put in ice for 15 minutes. Then they were centrifuged for 10 minutes at 5000 revolutions per minute. The sediment was washed twice with 0.2 M HCIO4. After the final centrifugation, the walls of the beaker were carefully dried with gauze and filter paper. The sediment was ground down with a glass pestle, suspended in 1 ml of water and then 1 ml of 0.6 M KON solution was added at room temperature. Hydrolysis was performed over the course of 1 hour at 37° C., then the beakers were put in ice to stop the hydrolysis process. 4 ml of the 0.6 M solution were added to each beaker and the beakers were left in ice for another 15 minutes, then centrifuged for 15 minutes at 5000 revolutions per minute. The supernatant was used to determine the RNA by UV absorption at 260 nm and 290 nm compared to the control sample containing 0.4M of HCIO4). The amount of RNA in μg per 1 ml of the supernatant was calculated using the following formula: [formula] where C=is the RNA concentration (μg/ml)
DNA analysis was carried out on the sediment remaining after the alkaline hydrolysis used to determine RNA. 0.5 M of HCIO4 (5 ml per sample) was poured into the dried beaker containing the sediment. Hydrolysis was performed in a boiling water bath for 20 minutes. The amount of DNA in μg per 1 ml of the hydrolysate was calculated using the following formula: [formula] where C=is the DNA concentration (μg/ml). Catalase Activity
Catalase activity was determined using the permanganate method. The optimal amount of the substrate (3 ml of 1% H2O2) and 1 ml of the enzyme were added to 10 ml of phosphate buffer, pH 7.8. After 10 minutes the reaction was stopped by adding 1.5 ml of H2SO4 (50%). The remaining hydrogen peroxide was filtered with 0.1M of KMnO4 solution. Catalase activity was calculated on the basis that 1 ml of 0.1M of KMnO4 solution corresponds to […] of H2O2.
SOD activity was determined using the dianisidine method, which is based on the fact that under ultraviolet irradiation Riboflavin (Rb) is converted to an excited (ionised) state and therefore becomes able to attack reduced dianisidine (DH2). […]

mice, rats, dogs = experiment: Chronic toxicity studies over six months; type: in vivo; conditions: mice and rats 40 mg/kg per day subcutaneously, dogs 10 or 40 mg/kg per day orally
Method: No effect on body weight, weight of internal organs, structure or function of internal organs or blood indicators was observed. These studies were performed in mice (40 mg/kg per day, given subcutaneously), in rats (40 mg/kg per day, given subcutaneously) and in dogs (10 mg/kg or 40 mg/kg per day, given orally).

[2] = test system: neurogenic dystrophy of the myocardium; experiment: Myocardial infarction model (electrostimulation), enzymes in rabbit myocardium; type: in vivo, rabbits; conditions: 10 mg/kg; 48 hours after electrostimulation
From the text: The effect of Compound 2 on myocardial tissue in an experimental model of myocardial infarction was examined. In this model system neurogenic dystrophy of the myocardium was induced in rats or rabbits by electrical stimulation of the reflexogenic zone of the aortic arch by implanted electrodes for a period of three hours. […] These changes are accompanied by changes in biochemical indicators such as creatine phosphate, cAMP, and calcium ion concentrations, and changes in the activity of redox enzymes such as succinate dehydrogenase, lactate dehydrogenase, and glucose-6-phosphate dehydrogenase. At a later stage organic lesions of the myocardium such as necrotic and fibrosclerotic foci can be observed.
The effect of Compound 2 given intraperitoneally or orally on these indicators was examined in rats and rabbits following electrostimulation as described above. The effects on levels of creatine phosphate in rat myocardial are shown in Table 19, and the effects on adenosine triphosphatase (ATPase), succinate dehydrogenase and glucose-6-phosphate dehydrogenase rabbit myocardium are shown in Table 20. The effects on cAMP and Ca^++ levels in rabbit myocardial tissue are shown in FIG. 5, and effects on creatine kinase in rabbit myocardium and blood and the levels of creatine phosphate in myocardium are shown in FIG. 6.

CC[n+]1cn(C)c(C(=O)NC)c1C(=O)NC.O=S(=O)([O-])c1ccccc1 [Compound 2, 1-methyl-3-ethyl-4,5-bis(N-methylcarbamoyl)-imidazolium benzenesulfonate]
LD50 (guinea pigs): more than 20000 mg/kg | Catalase E activity ([1]; 0.1 mM/kg): 18.0 ± 3.1 μgM/min/g tissue × 1000 | DNA content (in mg/g of tissue) ([1]; 0.1 mM/kg): 4.2 ± 0.37 mg/g of tissue | Protein content ([1]; 0.1 mM/kg): 86.4 ± 9.8 Mg/g tissue | RNA content (mg/g of tissue) ([1]; 0.1 mM/kg): 7.07 ± 0.18 mg/g of tissue | SOD activity ([1]; 0.1 mM/kg): 78.9 ± 5.8 Units/g tissue | Level of recovery ([1]; 0.1 mM/kg intraperitoneally): 150.5 | DNA content higher than in animals undergoing hepatectomy alone ([1]; 0.1 mM/kg or 0.2 MM/kg): 15% | Catalase E activity ([1]; 0.2 mM/kg): 20.0 ± 1.92 μgM/min/g tissue × 1000 | DNA content (in mg/g of tissue) ([1]; 0.2 mM/kg): 4.1 ± 0.13 mg/g of tissue | Protein content ([1]; 0.2 mM/kg): 94.8 ± 8.4 Mg/g tissue | RNA content (mg/g of tissue) ([1]; 0.2 mM/kg): 6.96 ± 0.39 mg/g of tissue | SOD activity ([1]; 0.2 mM/kg): 98.0 ± 4.6 Units/g tissue | Level of recovery ([1]; 0.2 mM/kg intraperitoneally): 134.9 | increase of the organ regeneration completeness ratio ([1]; 0.1 and 0.2 mM/kg): 34.9-50.5% | chronic toxicity findings (mice, rats, dogs): had no irritating or allergic action, does not act on the central nervous system, and has no teratogenic, mutagenic or carcinogenic immunosuppressive activity | ATPase [2]: 0.47 ± 0.13 µM/mg/min | Glucose-6-phosphate dehydrogenase (optical density units) [2]: 6.2 ± 0.7 optical density units | Succinate dehydrogenase (optical density units) [2]: 44.2 ± 6.7 optical density units
